Earlier results as cited in US20050060811A1, “Fabric care article and method for conserving energy” (The Procter & Gamble Company, priority 2000, published 2005).

Conditions: not given
For `ClC=CC[N+]12CN3CN(CN(C3)C1)C2.[Cl-]` [Dowicil 200, 1-(3-Chlorallyl)-3,5,7-triaza-1-azoniaadamantane chloride], the “solubility in water” value is given as “freely soluble in water”.

Same assay, conditions: in water
In the case of `OCCOc1ccccc1` [2-phenoxyethanol], the water solubility is listed as “about 2.67%”.
In the case of `OCCc1ccccc1` [2-phenylethanol], the water solubility is listed as “about 2%”.
For `O=[N+]([O-])C1(Br)COCOC1` [Bronidox L, 5-bromo-5-nitro-1,3-dioxane], the water solubility is given as “about 0.46%”.
For `O=[N+]([O-])C(Br)(CO)CO` [Bronopol, 2-bromo-2-nitropropane-1,3-diol], the water solubility is listed as “about 25%”.
For `CC1(C)C(=O)N(CO)C(=O)N1CO` [DMDM hydantoin, 1,3-bis(hydroxymethyl)-5,5-dimethyl-2,4-imidazolidinedione], the water solubility is listed as “more than 50%”.
In the case of `OCc1ccccc1` [benzyl alcohol], the water solubility is given as “about 4%”.
For `[H]/N=C(\N/C(=N/[H])NCCCCCCNC(=N)NC(=N)Nc1ccc(Cl)cc1)Nc1ccc(Cl)cc1` [chlorhexidine diacetate, 1,1′-hexamethylene bis(5-(p-chlorophenyl)biguanide)], the water solubility is given as “about 1.8%”.
In the case of `[H]/N=C(\N/C(=N/[H])NCCCCCCNC(=N)NC(=N)Nc1ccc(Cl)cc1)Nc1ccc(Cl)cc1` [chlorhexidine digluconate, 1,1′-hexamethylene bis(5-(p-chlorophenyl)biguanide)], the water solubility is given as “about 70%”.
In the case of `CC(C)(O)C(Cl)(Cl)Cl` [chlorobutanol, 1,1,1-Trichloro-2-methylpropan-2-ol], the water solubility is listed as “about 0.8%”.
In the case of `[Na+].[O-][n+]1ccccc1[S-]` [sodium pyrithione], the water solubility is listed as “about 50%”.
